Values after ≈ are worked out from the molar mass of the structure shown. Active and inactive are the calls of the source. A value given as a limit tells only on which side of the number the result lay.

Data set [1] has as its target T1, Polyunsaturated fatty acid lipoxygenase ALOX15 (Homo sapiens, UniProt P16050).
T1 sequence (P16050 whole entry): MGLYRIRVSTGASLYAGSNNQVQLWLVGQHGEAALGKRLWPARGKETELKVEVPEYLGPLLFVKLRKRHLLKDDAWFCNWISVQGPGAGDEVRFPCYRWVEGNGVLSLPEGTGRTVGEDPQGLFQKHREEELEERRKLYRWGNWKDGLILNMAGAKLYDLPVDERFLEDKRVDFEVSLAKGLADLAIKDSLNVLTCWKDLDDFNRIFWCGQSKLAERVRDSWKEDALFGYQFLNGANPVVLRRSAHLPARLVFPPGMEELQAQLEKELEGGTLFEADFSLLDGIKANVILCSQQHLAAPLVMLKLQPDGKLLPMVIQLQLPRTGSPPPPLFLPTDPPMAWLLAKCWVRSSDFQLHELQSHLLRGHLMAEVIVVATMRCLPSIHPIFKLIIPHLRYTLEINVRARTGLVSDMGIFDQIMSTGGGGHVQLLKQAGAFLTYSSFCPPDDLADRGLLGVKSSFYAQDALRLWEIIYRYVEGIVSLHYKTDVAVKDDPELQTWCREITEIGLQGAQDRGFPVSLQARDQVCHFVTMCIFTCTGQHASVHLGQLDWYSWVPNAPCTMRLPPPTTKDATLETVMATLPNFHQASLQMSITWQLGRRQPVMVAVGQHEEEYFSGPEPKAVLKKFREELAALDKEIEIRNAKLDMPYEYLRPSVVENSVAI
To be noted: sf9.
Description: (§4) Inhibition of human 15-LOX-1 expressed in Sf9 cells assessed as reduction in conversion of arachidonic acid to 15-HETE pre-incubated 5 min before arachidonic acid substrate addition by HPLC-UV spectroscopy

Data set [2] addresses T1, Polyunsaturated fatty acid lipoxygenase ALOX15.
Description: (§5) Inhibition of 15-LOX-1 in human L1236 cells assessed as reduction in conversion of arachidonic acid to 15-HETE pre-incubated 5 min before arachidonic acid substrate addition by HPLC-UV spectroscopy
The target is the same in data set [3]. The source holds these as a separate data set.
Description: as §4
Data set [4] shares this target. To be noted: l1236.
Description: as §5
Data set [5] addresses Voltage-gated inwardly rectifying potassium channel KCNH2 (Homo sapiens, UniProt Q12809). The data set can be described thus: Inhibition of human ERG.
A short description of data set [6]: Aqueous solubility in pH 7.4 buffer. The data set is classed as physicochemical.
For a further data set, the target named is CYP2C19 (Homo sapiens, UniProt P33261). The data set can be described thus: (§1) Inhibition of human CYP2C19 at 10 uM. Format: ADME.
Data set [7] deals with Polyunsaturated fatty acid 5-lipoxygenase (Homo sapiens) (UniProt P09917). The data set can be described thus: Inhibition of 5-LOX in calcium ionophore and arachidonic acid-stimulated purified human granulocytes assessed as reduction in LTB4 formation at 10 uM by HPLC-UV spectroscopy.
Data set [8] is described as follows: Intrinsic clearance in human microsomes. The data set is classed as ADME, Microsome.
Data set [9] has as its target T2, Prostaglandin G/H synthase 1 (Ovis aries) (UniProt P05979).
T2 sequence (whole entry): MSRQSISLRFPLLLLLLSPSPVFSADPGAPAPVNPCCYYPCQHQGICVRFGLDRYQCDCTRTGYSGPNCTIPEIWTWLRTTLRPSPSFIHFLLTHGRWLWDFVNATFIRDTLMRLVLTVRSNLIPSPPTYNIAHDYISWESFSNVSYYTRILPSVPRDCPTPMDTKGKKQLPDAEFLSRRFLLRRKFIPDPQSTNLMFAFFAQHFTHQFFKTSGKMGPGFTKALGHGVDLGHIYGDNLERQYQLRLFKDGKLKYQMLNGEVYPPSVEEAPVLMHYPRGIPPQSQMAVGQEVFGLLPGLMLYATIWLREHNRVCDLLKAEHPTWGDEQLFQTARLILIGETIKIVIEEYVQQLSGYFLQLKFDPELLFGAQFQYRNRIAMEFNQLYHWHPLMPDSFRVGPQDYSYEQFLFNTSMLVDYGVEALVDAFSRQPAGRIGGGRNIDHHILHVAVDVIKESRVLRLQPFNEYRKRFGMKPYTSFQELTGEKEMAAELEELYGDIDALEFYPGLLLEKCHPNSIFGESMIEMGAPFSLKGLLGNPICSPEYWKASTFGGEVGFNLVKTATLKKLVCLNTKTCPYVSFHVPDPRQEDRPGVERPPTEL
The data set can be described thus: Inhibition of ovine COX1 assessed as reduction in PGH2-derived PGF2alpha production at 10 uM by enzyme immunoassay.

Data set [10] in a line: Half life in human microsomes. Format: ADME, Microsome.
For data set [11], the target named is T3, Cytochrome P450 3A4 (Homo sapiens, UniProt P08684). The data set can be described thus: Inhibition of human CYP3A4 at 10 uM. Format: ADME.
In data set [12] the target is T4, Prostaglandin G/H synthase 2 (Homo sapiens) (UniProt P35354).
T4 sequence (whole entry): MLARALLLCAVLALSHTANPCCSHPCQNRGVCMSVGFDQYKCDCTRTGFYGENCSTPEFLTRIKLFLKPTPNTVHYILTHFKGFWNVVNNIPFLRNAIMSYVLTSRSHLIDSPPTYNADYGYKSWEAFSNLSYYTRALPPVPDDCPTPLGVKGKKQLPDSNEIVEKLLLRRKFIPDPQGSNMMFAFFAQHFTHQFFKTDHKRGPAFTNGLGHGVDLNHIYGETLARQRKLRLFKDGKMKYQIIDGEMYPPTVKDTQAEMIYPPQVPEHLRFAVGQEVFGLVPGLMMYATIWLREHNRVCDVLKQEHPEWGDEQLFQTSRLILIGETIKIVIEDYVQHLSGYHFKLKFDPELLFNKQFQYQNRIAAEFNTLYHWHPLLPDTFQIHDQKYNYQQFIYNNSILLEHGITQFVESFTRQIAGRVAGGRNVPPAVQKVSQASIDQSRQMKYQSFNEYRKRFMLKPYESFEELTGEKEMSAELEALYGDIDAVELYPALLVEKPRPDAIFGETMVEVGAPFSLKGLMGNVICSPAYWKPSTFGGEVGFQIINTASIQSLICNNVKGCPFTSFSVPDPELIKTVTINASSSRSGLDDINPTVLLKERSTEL
The experiment in a line: Inhibition of human recombinant COX2 assessed as reduction in PGH2-derived PGF2alpha production at 10 uM by enzyme immunoassay.

Another data set concerns Escherichia coli. The experiment in a line: Genotoxicity in Escherichia coli by SOS/umu test. The data set is classed as toxicity, organism-based.
In data set [13] the target is T3, Cytochrome P450 3A4. The experiment in a line: Inhibition of human CYP3A4. Format: ADME.
In a further data set the test system is Caco-2. The experiment in a line: Permeability in human Caco2 cells. The data set is classed as ADME, cell-based. A general note: Caco-2 cells form a polarised layer with tight junctions and transporters.
Data set [14] is described as follows: Protein binding in plasma (unknown origin). Format: ADME, cell-free. The conditions noted are these: read-out: PPB (converted).
The next data set deals with CYP2C9 (Homo sapiens, UniProt P11712). The experiment in a line: (§2) Inhibition of human CYP2C9 at 10 uM. Format: ADME.
Data set [15] has as its target Polyunsaturated fatty acid lipoxygenase ALOX12 (Homo sapiens) (UniProt P18054). The data set can be described thus: Inhibition of human platelet 12-LOX assessed as reduction in conversion of arachidonic acid to […] at 10 uM pre-incubated 5 min before arachidonic acid substrate addition by HPLC-UV spectroscopy.
The target in a further data set is CYP2D6 (Homo sapiens, UniProt P10635). The experiment in a line: Inhibition of human CYP2D6 at 10 uM. The data set is classed as ADME.
The target of another data set is CYP1A2 (Homo sapiens, UniProt P05177). The experiment in a line: (§3) Inhibition of human CYP1A2 at 10 uM. The data set is classed as ADME.
Data set [16] deals with T5, Cytochrome P450 2C19 (Homo sapiens, UniProt P33261). Described as §1. Format: ADME. To be noted: 10 µM.
A short description of data set [17]: Aqueous solubility in pH 10 buffer. The data set is classed as physicochemical.
A short description of data set [18]: Aqueous solubility in pH 2.0 buffer. The data set is classed as physicochemical.
The target of data set [19] is T5, Cytochrome P450 2C19. The data set can be described thus: Inhibition of human CYP2C19. Format: ADME.
In data set [20] the target is T6, Cytochrome P450 2C9 (Homo sapiens, UniProt P11712). The experiment in a line: Inhibition of human CYP2C9. The data set is classed as ADME.
Data set [21] concerns the target T6, Cytochrome P450 2C9. Described as §2. Format: ADME. To be noted: 10 µM.
Another data set concerns the target Cytochrome P450 1A2 (Homo sapiens, UniProt P05177). The data set is described as §3. The conditions noted are these: 10 µM. Format: ADME.

T3 sequence (P08684 whole entry): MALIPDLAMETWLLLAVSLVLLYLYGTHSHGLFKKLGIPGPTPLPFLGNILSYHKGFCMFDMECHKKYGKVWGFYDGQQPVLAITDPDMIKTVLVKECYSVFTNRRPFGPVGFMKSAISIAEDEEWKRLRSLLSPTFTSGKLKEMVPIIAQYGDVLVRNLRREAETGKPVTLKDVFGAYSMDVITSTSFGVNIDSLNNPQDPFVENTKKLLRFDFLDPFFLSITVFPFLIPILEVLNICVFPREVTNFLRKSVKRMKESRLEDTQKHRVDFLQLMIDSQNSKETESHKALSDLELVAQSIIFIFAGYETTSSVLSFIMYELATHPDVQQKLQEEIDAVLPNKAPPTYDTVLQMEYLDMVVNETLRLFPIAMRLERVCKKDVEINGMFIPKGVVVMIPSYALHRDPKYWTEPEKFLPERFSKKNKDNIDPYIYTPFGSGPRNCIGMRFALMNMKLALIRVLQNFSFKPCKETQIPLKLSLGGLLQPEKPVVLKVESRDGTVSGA
T5 sequence (P33261 whole entry): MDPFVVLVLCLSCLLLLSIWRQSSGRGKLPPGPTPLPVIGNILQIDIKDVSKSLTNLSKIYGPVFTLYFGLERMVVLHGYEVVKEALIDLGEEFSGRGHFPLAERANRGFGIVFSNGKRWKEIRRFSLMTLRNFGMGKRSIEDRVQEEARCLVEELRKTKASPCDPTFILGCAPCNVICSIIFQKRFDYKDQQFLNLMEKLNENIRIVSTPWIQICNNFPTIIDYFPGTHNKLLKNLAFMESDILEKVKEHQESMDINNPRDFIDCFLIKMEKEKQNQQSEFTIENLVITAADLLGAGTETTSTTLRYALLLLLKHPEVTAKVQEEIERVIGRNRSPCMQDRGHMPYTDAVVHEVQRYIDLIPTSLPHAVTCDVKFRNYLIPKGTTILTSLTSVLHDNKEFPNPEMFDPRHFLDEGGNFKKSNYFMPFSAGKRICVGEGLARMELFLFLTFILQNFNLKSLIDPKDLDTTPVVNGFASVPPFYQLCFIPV
T6 sequence (P11712 whole entry): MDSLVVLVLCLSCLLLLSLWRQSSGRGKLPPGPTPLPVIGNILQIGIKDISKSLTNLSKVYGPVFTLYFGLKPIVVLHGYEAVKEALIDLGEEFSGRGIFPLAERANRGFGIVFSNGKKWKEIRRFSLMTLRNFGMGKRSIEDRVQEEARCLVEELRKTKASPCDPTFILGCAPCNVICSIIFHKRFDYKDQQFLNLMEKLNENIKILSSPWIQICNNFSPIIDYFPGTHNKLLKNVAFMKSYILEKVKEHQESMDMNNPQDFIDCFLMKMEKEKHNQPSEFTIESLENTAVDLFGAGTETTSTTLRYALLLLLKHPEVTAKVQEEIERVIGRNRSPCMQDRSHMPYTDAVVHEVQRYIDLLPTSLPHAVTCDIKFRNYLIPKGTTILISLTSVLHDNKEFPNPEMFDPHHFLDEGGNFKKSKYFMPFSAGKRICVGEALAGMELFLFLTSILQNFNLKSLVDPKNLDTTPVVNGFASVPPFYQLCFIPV
Voltage-gated inwardly rectifying potassium channel KCNH2, sequence (Q12809 whole entry): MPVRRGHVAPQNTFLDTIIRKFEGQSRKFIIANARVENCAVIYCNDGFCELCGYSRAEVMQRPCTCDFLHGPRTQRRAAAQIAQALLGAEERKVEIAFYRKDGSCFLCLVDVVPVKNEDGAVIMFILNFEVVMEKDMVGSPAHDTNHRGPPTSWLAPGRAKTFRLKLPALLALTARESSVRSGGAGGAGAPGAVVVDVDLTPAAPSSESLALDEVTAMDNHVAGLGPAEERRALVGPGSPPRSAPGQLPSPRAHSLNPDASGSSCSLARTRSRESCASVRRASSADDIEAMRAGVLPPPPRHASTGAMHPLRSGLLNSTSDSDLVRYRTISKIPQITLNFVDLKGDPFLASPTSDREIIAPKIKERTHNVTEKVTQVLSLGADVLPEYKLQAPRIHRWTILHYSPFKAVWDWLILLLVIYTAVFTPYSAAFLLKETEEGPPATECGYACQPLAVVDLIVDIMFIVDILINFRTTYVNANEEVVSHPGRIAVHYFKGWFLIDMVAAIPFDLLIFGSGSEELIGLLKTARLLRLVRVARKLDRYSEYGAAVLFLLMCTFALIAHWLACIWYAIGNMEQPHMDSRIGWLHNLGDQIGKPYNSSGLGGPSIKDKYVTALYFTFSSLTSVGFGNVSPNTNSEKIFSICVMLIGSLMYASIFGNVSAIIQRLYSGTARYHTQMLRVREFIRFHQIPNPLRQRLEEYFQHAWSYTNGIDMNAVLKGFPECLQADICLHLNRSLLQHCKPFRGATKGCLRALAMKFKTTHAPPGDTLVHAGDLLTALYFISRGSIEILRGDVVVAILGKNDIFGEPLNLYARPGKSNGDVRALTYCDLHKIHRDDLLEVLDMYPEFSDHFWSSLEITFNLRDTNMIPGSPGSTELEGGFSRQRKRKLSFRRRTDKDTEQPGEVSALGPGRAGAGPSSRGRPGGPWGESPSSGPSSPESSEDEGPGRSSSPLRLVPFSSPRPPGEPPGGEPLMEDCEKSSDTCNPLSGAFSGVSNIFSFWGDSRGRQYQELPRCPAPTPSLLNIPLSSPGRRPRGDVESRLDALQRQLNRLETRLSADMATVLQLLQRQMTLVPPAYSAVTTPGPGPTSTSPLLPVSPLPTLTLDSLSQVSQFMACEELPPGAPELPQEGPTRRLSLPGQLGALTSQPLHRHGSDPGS
Cytochrome P450 1A2, sequence (P05177 whole entry): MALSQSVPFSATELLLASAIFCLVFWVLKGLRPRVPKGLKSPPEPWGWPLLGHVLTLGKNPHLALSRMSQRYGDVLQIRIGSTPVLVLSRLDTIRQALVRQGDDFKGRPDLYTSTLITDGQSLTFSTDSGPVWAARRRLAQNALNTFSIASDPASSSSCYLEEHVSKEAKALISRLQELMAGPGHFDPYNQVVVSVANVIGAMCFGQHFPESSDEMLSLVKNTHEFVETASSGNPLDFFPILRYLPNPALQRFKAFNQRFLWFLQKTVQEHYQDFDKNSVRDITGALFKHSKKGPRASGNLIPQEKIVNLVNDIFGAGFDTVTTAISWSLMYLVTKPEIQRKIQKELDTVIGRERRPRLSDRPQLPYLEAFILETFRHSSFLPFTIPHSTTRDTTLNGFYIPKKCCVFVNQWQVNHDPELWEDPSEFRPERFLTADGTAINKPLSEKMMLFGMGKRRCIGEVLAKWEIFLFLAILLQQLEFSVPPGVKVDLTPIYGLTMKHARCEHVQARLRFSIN
CYP1A2, sequence (P05177 whole entry): as above
CYP2C19, sequence (P33261 whole entry): as the sequence (P33261 whole entry) above
Polyunsaturated fatty acid 5-lipoxygenase (Homo sapiens), sequence (P09917 whole entry): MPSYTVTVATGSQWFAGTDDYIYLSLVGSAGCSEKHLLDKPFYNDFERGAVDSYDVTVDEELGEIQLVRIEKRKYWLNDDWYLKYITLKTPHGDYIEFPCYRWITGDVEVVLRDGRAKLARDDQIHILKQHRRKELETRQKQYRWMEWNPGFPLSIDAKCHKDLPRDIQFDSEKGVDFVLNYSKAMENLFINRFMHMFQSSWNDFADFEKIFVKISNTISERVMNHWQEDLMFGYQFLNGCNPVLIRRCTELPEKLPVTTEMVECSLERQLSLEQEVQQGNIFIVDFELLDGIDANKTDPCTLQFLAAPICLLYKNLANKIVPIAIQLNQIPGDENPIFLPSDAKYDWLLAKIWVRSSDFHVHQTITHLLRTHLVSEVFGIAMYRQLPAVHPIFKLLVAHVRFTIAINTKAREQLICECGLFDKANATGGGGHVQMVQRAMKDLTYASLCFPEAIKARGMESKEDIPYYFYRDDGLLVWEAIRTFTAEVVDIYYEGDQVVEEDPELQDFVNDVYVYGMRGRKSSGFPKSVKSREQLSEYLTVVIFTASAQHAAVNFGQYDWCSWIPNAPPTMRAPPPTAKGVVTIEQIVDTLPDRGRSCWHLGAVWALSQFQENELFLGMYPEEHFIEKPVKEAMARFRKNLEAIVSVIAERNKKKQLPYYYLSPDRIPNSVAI
CYP2D6, sequence (P10635 whole entry): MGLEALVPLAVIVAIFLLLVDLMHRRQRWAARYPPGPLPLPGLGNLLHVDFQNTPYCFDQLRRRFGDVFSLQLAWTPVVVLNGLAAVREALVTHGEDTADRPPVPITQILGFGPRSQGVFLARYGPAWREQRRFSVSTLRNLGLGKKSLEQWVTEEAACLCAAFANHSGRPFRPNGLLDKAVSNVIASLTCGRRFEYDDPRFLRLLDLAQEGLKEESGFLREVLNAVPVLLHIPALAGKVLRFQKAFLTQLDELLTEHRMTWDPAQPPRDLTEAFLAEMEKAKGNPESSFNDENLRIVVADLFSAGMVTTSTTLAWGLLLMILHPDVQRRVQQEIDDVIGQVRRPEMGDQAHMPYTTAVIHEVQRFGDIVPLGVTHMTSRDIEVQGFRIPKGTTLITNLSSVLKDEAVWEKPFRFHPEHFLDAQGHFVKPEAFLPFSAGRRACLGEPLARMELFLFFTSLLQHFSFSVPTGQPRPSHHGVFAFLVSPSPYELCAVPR

What is called IC50 is the point on the concentration scale where inhibition reaches its midpoint. High values mean lower potency, low ones higher potency. For the compound `O=C(Nc1ccc(F)cc1Cl)c1cc([N+](=O)[O-])[nH]n1`, the values for the IC50 entry in data set [1] and in [2] were “Not Active” and 3290 nM, respectively.
As for `O=C(Nc1ccc(F)cc1)c1cn[nH]n1`, the IC50 was 947 nM in data set [3] and 2430 nM in data set [2].
For the compound `CN(C(=O)c1cc[nH]n1)c1ccccc1Cl`, the IC50 result in data set [1] and in data set [4] was “Not Active” throughout.
In turn, `O=C(Nc1cnc2ccccc2c1)c1cn[nH]n1` gave an IC50 in [2] of 1020 nM.
On to `O=C(Nc1ccc(F)cn1)c1cn[nH]n1`, for which the IC50 in data set [3] came out at 3970 nM; in data set [2] it was 3110 nM.
In the case of `O=C(Nc1cccnc1)c1ccn[nH]1`, the IC50 entry in [4] is “Not Active”.
Consider `Clc1ccc2nc(-c3n[nH]c(Cl)c3Cl)oc2c1`, for which the IC50 stood at 2 nM in data set [3] and 34 nM in data set [2].
For the compound `O=C(Nc1ccccn1)c1cc[nH]n1`, the results for the IC50 in data set [3] and in data set [2] were 1210 nM and 3410 nM, respectively.
Regarding `O=C(Nc1ccncc1)c1cc[nH]n1`, the IC50 result in data set [4] is on record as “Not Active”.
As for `O=C(Nc1ccc(F)cc1Cl)c1n[nH]cc1-c1ccccc1`, in data set [4], the IC50 result is “Not Active”.
As for `O=C(NCc1ccccc1)c1cc[nH]n1`, the IC50 result in data set [1] is “Not Active”.
As to `Nc1cc(C(=O)Nc2ccc(F)cc2Cl)n[nH]1`, the IC50 in data set [3] is 5980 nM; in data set [2], 334 nM.
The like results for `O=C(Nc1ccc(F)cc1Cl)c1n[nH]cc1[N+](=O)[O-]` were, in that order, 5900 nM and 616 nM.
Turning to `c1ccc2oc(-c3cc[nH]n3)nc2c1`, the values for the IC50 in [3] and in data set [2] were 3270 nM and 638 nM, respectively.
Usually solubility stands for the dissolved amount per volume that the medium holds. The term inhibition denotes the drop in the measured response relative to a control, in per cent. Usually microsomal CLint stands for the rate of metabolic loss divided by the concentration. Read a low microsomal CLint as slow turnover. By half-life is commonly meant the time needed for the level to fall by half in the phase considered. Turning to `O=C(Nc1ccc(F)cn1)c1cc[nH]n1`, the “inhibition (INH)” value (in [5]; against Cytochrome P450 3A4 [11]) was “Not Active” throughout. The same compound gave a solubility in data set [6] of 3.4 µg/mL (≈ 16.5 µM). In addition, the inhibition at 10 µM against CYP2C19 was found to be 6%; on CYP2C9 it was 26%; against CYP2D6, 9%; against CYP1A2, 45%. The inhibition in data set [7] and in [15] was less than 50% each time. For the same compound, in [8], the microsomal CLint came to 17 µL/min/mg. The inhibition entry in [9] and in data set [12] was “inactive” each time. The compound further returned a half-life in data set [10] of 36 min. For the same compound, in the data set with Escherichia coli, the Activity result is reported as “Non-toxic”. The IC50 entry on Cytochrome P450 3A4 [13] was “Not Active”. Besides, the permeability result in the data set on Caco-2 is reported as “permeable”. In [14], the fraction unbound is 0.071.
Regarding `CS(=O)(=O)Nc1cc(C(=O)Nc2ccc(F)cc2Cl)n[nH]1`, the IC50 result in data set [4] was “Not Active”.
For `Cc1c(C(=O)Nc2ccc(F)cc2Cl)n[nH]c1[Si](C)(C)C`, the IC50 came out at 672 nM in data set [3] and 1330 nM in [2].
On to `O=C(Nc1ccc2ccccc2n1)c1cc[nH]n1`, for which the “inhibition (INH)” value is “Not Active” in data set [5], “Not Active” at Cytochrome P450 2C19 [16], “Not Active” at Cytochrome P450 2C9 [21] and 75% against Cytochrome P450 1A2. The IC50 in data set [3] is 180 nM; in data set [2], 92 nM; against Cytochrome P450 2C19 [19], “Not Active”; at Cytochrome P450 2C9 [20] it was “Not Active”. The solubility in data set [6] came to 10.1 µg/mL (≈ 42.4 µM); in data set [17], 10.1 µg/mL (≈ 42.4 µM); in data set [18], 573 µg/mL (≈ 2410 µM). This compound also had a microsomal CLint in data set [8] of 7 µL/min/mg. The inhibition in data set [9] is 9%. In data set [10], this compound yielded a half-life of more than 100 min. Moreover, the inhibition entry in data set [12] is “inactive”. The Activity entry with Escherichia coli was “Non-toxic”. Also, the permeability result with Caco-2 is “permeable”. Further, the fraction unbound in [14] is 0.072.
As to `CS(=O)(=O)Nc1c[nH]nc1C(=O)Nc1ccc(F)cc1Cl`, in data set [4], the IC50 entry is given as “Not Active”.
Compound `O=C(Nc1ccc(F)cc1)c1cc[nH]n1` showed an IC50 in data set [2] of 270 nM.
Consider `O=C(Nc1ccccc1Cl)c1cn[nH]n1`, for which the IC50 in data set [3] was found to be 6980 nM; in data set [2], 392 nM.

(Values after ChEMBL document CHEMBL3603736, “3-Substituted pyrazoles and 4-substituted triazoles as inhibitors of human 15-lipoxygenase-1” (Bioorg Med Chem Lett, 2015).)
